# pIC50: −log10 of the molar value.
# Columns and labels:
# [1] = system: HCT 116 wild-type MTAP cells; assay: Inhibition of proliferation of HCT116 wild-type MTAP cells (CellTiter-Glo, 6 days); assay type: cell-based; settings: Homo sapiens, HCT-116, 144 h
# Description: (§1) 1. HCT 116 MTAP-knockout cells and HCT 116 wild-type MTAP cells were plated in 96-well flat-bottom plates and cultured overnight at 37° C. and […] in McCoy's 5A medium containing 10% fetal bovine serum+1% penicillin-streptomycin.
# (§2) 2. The next day, compounds were each dissolved in DMSO, diluted successively with DMSO and medium and then transferred to cell plates; the final concentration of each compound was 10 μM, 4-fold dilution was performed to obtain 9 concentration points, and a DMSO control was provided.
# (§3) 3. Cells not treated with compound were subjected to CellTiter-Glo Luminescent Cell Viability Assay (Promega) to detect the cell viability, and reference was made to the kit instructions for the operation; the plates were then placed on an EnVision Multilabel Reader to detect luminescence signals.
# (§4) 4. Meanwhile, the cell plates containing cells treated with compounds were cultured continuously at 37° C. and […] CO2 for 6 days.
# (§5) 5. Then, the cell viability was also detected by CellTiter-Glo.
# (§6) 6. Finally, dose response curves were plotted using the four parameter dose response curve module of GraphPad Prism v 9.2.0 software and proliferation inhibition IC50 (unit: nM) was calculated.
# [2] = system: HCT 116 MTAP-knockout cells; assay: Inhibition of proliferation of HCT116 MTAP-knockout cells (CellTiter-Glo, 6 days); assay type: cell-based, human; settings: for pIC50: Homo sapiens, HCT-116, 144 h, proliferation inhibition, HCT116 MTAP-knockout, 6 days, CellTiter-Glo; for Selectivity: IC50 HCT116 wild-type cells / IC50 HCT116 MTAP-knockout cells
# Description: as §1, §2, §3, §4, §5, §6
pIC50 [1],pIC50 [2],Compound,Selectivity [2]
5.73,7.46,"Cc1cc2nc(N)c3cnc(C)n3c2cc1C(=O)N(Cc1ccc(C(F)(F)F)cn1)CC1CC1 [Example 169, 4-amino-N-(cyclopropylmethyl)-1,7-dimethyl-N-((5-(trifluoromethyl)pyridin-2-yl)methyl)imidazo[1,5-a]quinoxaline-8-carboxamide]",53.6
5.69,7.66,"Nc1nc2ccc(C(=O)N(Cc3ccc(C(F)(F)F)cn3)CC3CC3)cc2n2cncc12 [Example 144, 4-amino-N-(cyclopropylmethyl)-N-((5-(trifluoromethyl)pyridin-2-yl)methyl)imidazo[1,5-a]quinoxaline-8-carboxamide]",93.5
6.78,8.10,"C[C@H](c1ncccn1)N(Cc1ccc(C(F)(F)F)cn1)C(=O)c1ccc2nc(N)c3cncn3c2c1 [Example 3, (R)-4-amino-N-(1-(pyrimidin-2-yl)ethyl)-N-((5-(trifluoromethyl)pyridin-2-yl)methyl)imidazo[1,5-a]quinoxaline-8-carboxamide]",20.8
< 5.00,6.73,"CN(C(=O)c1ccc2nc(N)c3cncn3c2c1)C1COc2cc(-c3cnn(C)c3)ccc21 (stereo not drawn) [Example 214, 4-amino-N-methyl-N-(6-(1-methyl-1H-pyrazol-4-yl)-2,3-dihydrobenzofuran-3-yl)imidazo[1,5-a]quinoxaline-8-carboxamide]",>53.1
5.10,6.95,"Cc1ncc2c(N)nc3cc(F)c(C(=O)N(Cc4ccc(C(F)(F)F)cn4)CC4CC4)cc3n12 [Example 168, 4-amino-N-(cyclopropylmethyl)-7-fluoro-1-methyl-N-((5-(trifluoromethyl)pyridin-2-yl)methyl)imidazo[1,5-a]quinoxaline-8-carboxamide]",71.3
7.37,7.79,"C[C@H](c1ncccn1)N(Cc1ccc(C(F)(F)F)cn1)C(=O)c1ccc2nc(N)c3c(cnn3C)c2c1 [Comparative compound 1, reference compound]",2.6
5.14,7.30,"Cn1cc(N(Cc2ccc(C(F)(F)F)cn2)C(=O)c2ccc3nc(N)c4cncn4c3c2)cn1 [Example 149, 4-amino-N-(1-methyl-1H-pyrazol-4-yl)-N-((5-(trifluoromethyl)pyridin-2-yl)methyl)imidazo[1,5-a]quinoxaline-8-carboxamide]",144.1
5.43,7.17,"CN(C(=O)c1ccc2nc(N)c3cncn3c2c1)C1COCc2cc(C(F)(F)F)ccc21 (stereo not drawn) [Example 179, 4-amino-N-methyl-N-(7-(trifluoromethyl)isochroman-4-yl)imidazo[1,5-a]quinoxaline-8-carboxamide]",55.5
5.29,6.48,"Nc1nc2ccc(C(=O)N(CC3CC3)[C@@H]3COc4nc(C(F)(F)F)ccc43)cc2n2cncc12 [Example 181a, (S)-4-amino-N-(cyclopropylmethyl)-N-(6-(trifluoromethyl)-2,3-dihydrofuro[2,3-b]pyridin-3-yl)imidazo[1,5-a]quinoxaline-8-carboxamide]",15.5
< 5.00,6.76,"Cc1cc2nc(N)c3cnc(C)n3c2cc1C(=O)N(C)Cc1ccc(C(F)(F)F)cn1 [Example 231, 4-amino-N,1,7-trimethyl-N-((5-(trifluoromethyl)pyridin-2-yl)methyl)imidazo[1,5-a]quinoxaline-8-carboxamide]",>57.5
5.88,7.72,"Cn1cc(N(C(=O)c2cc3c(cc2Cl)nc(N)c2cncn23)[C@@H]2COc3nc(C(F)(F)F)ccc32)cn1 [Example 211a, (S)-4-amino-7-chloro-N-(1-methyl-1H-pyrazol-4-yl)-N-(6-(trifluoromethyl)-2,3-dihydrofuro[2,3-b]pyridin-3-yl)imidazo[1,5-a]quinoxaline-8-carboxamide]",69.9
< 5.00,6.49,"Cc1cc2nc(N)c3cncn3c2cc1C(=O)N1CC[C@@H](C)C[C@@H]1c1ccc2scnc2c1 [Example 226, (4-amino-7-methylimidazo[1,5-a]quinoxalin-8-yl)((2R,4R)-2-(benzo[d]thiazol-5-yl)-4-methylpiperidin-1-yl)methanone]",>31
6.42,8.40,"Cn1cc(N(C(=O)c2ccc3nc(N)c4cncn4c3c2)[C@@H]2COc3cc(C(F)(F)F)ccc32)cn1 [Example 30a, (S)-4-amino-N-(1-methyl-1H-pyrazol-4-yl)-N-(6-(trifluoromethyl)-2,3-dihydrobenzofuran-3-yl)imidazo[1,5-a]quinoxaline-8-carboxamide]",95.3
5.69,7.26,"C[C@@H]1COC[C@H](c2ccc(C(F)(F)F)cn2)N1C(=O)c1ccc2nc(N)c3cncn3c2c1 [Example 14a, (4-aminoimidazo[1,5-a]quinoxalin-8-yl)((3R,5S)-3-methyl-5-(5-(trifluoromethyl)pyridin-2-yl)morpholino)methanone]",37.4
7.11,7.45,"CC(c1ncccn1)N(Cc1ccc(C(F)(F)F)cn1)C(=O)c1ccc2nc(N)c3[nH]ncc3c2c1 (stereo not drawn) [Comparative compound 2, reference compound]",2.2
5.88,7.82,"Cc1cc2nc(N)c3cncn3c2cc1C(=O)N(Cc1ccc(C(F)(F)F)nn1)CC1CC1 [Example 213, 4-amino-N-(cyclopropylmethyl)-7-methyl-N-((6-(trifluoromethyl)pyridazin-3-yl)methyl)imidazo[1,5-a]quinoxaline-8-carboxamide]",87.9
7.15,8.70,"Cc1cc2nc(N)c3cncn3c2cc1C(=O)N(c1cnn(C)c1)[C@@H]1COc2cc(C(F)(F)F)ccc21 [Example 207a, (S)-4-amino-7-methyl-N-(1-methyl-1H-pyrazol-4-yl)-N-(6-(trifluoromethyl)-2,3-dihydrobenzofuran-3-yl)imidazo[1,5-a]quinoxaline-8-carboxamide]",35
6.48,8.22,"Nc1nc2cc(F)c(C(=O)N(Cc3ccc(C(F)(F)F)cn3)CC3CC3)cc2n2cncc12 [Example 163, 4-amino-N-(cyclopropylmethyl)-7-fluoro-N-((5-(trifluoromethyl)pyridin-2-yl)methyl)imidazo[1,5-a]quinoxaline-8-carboxamide]",55
5.30,6.94,"Nc1nc2ccc(C(=O)N(Cc3ccc(C(F)(F)F)cn3)C3CCC3)cc2n2cncc12 [Example 147, 4-amino-N-cyclobutyl-N-((5-(trifluoromethyl)pyridin-2-yl)methyl)imidazo[1,5-a]quinoxaline-8-carboxamide]",43.4
5.57,7.13,"Cc1ncc2c(N)nc3ccc(C(=O)N(Cc4ccc(C(F)(F)F)cn4)CC4CC4)cc3n12 [Example 167, 4-amino-N-(cyclopropylmethyl)-1-methyl-N-((5-(trifluoromethyl)pyridin-2-yl)methyl)imidazo[1,5-a]quinoxaline-8-carboxamide]",36.6
5.82,7.54,"Cc1ncc2c(N)nc3ccc(C(=O)N(Cc4ccc(C(F)(F)F)cn4)[C@H](C)c4ncccn4)cc3n12 [Example 1, (R)-4-amino-1-methyl-N-(1-(pyrimidin-2-yl)ethyl)-N-((5-(trifluoromethyl)pyridin-2-yl)methyl)imidazo[1,5-a]quinoxaline-8-carboxamide]",51.7
5.12,6.97,"Cc1cc2nc(N)c3cncn3c2cc1C(=O)N(C)Cc1ccc(C(F)(F)F)cn1 [Example 230, 4-amino-N,7-dimethyl-N-((5-(trifluoromethyl)pyridin-2-yl)methyl)imidazo[1,5-a]quinoxaline-8-carboxamide]",70.1
5.46,7.92,"C[C@H]1CC[C@H](c2ccc3scnc3c2)N(C(=O)c2ccc3nc(N)c4cncn4c3c2)C1 [Example 227, (4-aminoimidazo[1,5-a]quinoxalin-8-yl)((2R,5S)-2-(benzo[d]thiazol-5-yl)-5-methylpiperidin-1-yl)methanone]",283
7.07,8.22,"C[C@H](c1ncccn1)N(Cc1ccc(C(F)(F)F)cn1)C(=O)c1ccc2nc(N)c3cnn(C)c3c2c1 [Comparative compound 4, reference compound]",14.2
< 5.00,6.30,"C[C@@H]1CCN(C(=O)c2ccc3nc(N)c4cncn4c3c2)[C@@H](c2ccc3scnc3c2)C1 [Example 225, (4-aminoimidazo[1,5-a]quinoxalin-8-yl)((2R,4R)-2-(benzo[d]thiazol-5-yl)-4-methylpiperidin-1-yl)methanone]",>20

# Source: patent US20250382296A1, “NITROGEN-CONTAINING FUSED THREE RING PRMT5 INHIBITOR, AND PREPARATION METHOD THEREFOR AND PHARMACEUTICAL USE THEREOF” (Abbisko Therapeutics Co., Ltd., priority 2022, published 2025)
